What follows are compounds tested against T1, recombinant E. coli LpxA (Escherichia coli, UniProt P0A722) (assay: LpxA assay: acyl-UDP-GlcNAc formation from UDP-[3H]GlcNAc, TLC). Conditions: 5 mM compound; FIG. 8.
T1 construct: 6xHis (C); made in house; host or cells: E. coli BL21 (pET23b)
Assay type: biochemical
From the text: The lpxA gene was amplified from an E. coli genomic library and inserted into a pET23b vector using standard recombinant DNA methodology. The 5′ oligonucleotide for amplification of the LpxA open reading frame was 5′-[…]-3′ (SEQ ID NO. 1) and contains a BamHI restriction enzyme site upstream of the LpxA ATG start codon and the 3′ oligonucleotide was 5′-[…]-3′ (SEQ ID NO. 2) and contains a XhoI restriction enzyme site downstream of the final codon of the LpxA open reading frame. Primers were custom synthesized. The primers were designed such that digestion of the amplification product would result in addition of a C-terminal 6×-His tag in frame with the LpxA open reading frame. Specifically, E. coli genomic DNA was isolated and an amplification reaction was carried out as follows: 33 μl water, 5 μl 10× reaction buffer, 1.5 μl of 50 mM magnesium sulfate, 3 μl of 10 mM dNTPs, 3 μl of a 50 μM solution of the 5′ LpxA primer, 3 μl of a 50 μM solution of the 3′ LpxA primer, 0.5 μl of E. coli genomic DNA solution, and 1 μl of polymerase. The reaction conditions were as follows: 94° C. for 2 minutes; followed by 30 cycles of 94° C. for 30 seconds, 50° C. for 30 seconds, 68° C. for 1.5 minutes, followed by an extension at 68° C. for 7 minutes. The resulting LpxA product was separated from other DNA on a 0.8% agarose gel and isolated from the gel. The LpxA open reading frame was cloned into a topoisomerase I-activated vector and transformed into E. coli. […] The newly synthesized plasmid containing the BamHI- and XhoI-flanked LpxA open reading frame and plasmid pET23a were digested with BamHI and XhoI at 37° C. for 2 hours, DNA was separated by agarose gel electrophoresis, isolated from the gel, and ligated. Ligation reactions were transformed into chemically competent E. coli and plasmid DNA was isolated. Restriction mapping was performed to determine which plasmids contained the LpxA open reading frame. To remove the T7 epitope coding sequence from the 5′end of the LpxA open reading frame, the pET23a plasmid containing the LpxA open reading frame was digested with the restriction enzymes BamHI and XhoI and a pET23b plasmid was digested with BglII and XhoI, DNA was separated by agarose gel electrophoresis, isolated from the gel, and ligated. Ligation reactions were transformed into chemically competent E. coli and plasmid DNA was isolated. Restriction mapping was performed to assess plasmids containing the LpxA open reading frame.
A 5 ml culture of E. Coli BL21 cells expressing the LpxA-6×His plasmid was grown overnight at 37° C. in LB medium containing 50 μg/ml ampicillin and 34 μg/ml chloramphenicol, then subcultured into 500 ml of the same medium and grown at 37° C. until A600=0.6. LpxA expression was induced by addition of 0.5 mM IPTG for three hours. The cells were centrifuged at 7 000×g for 10 minutes at 4° C. and lysed using a mild, nonionic detergent. The soluble fraction containing LpxA was added to 1 ml of nickel affinity resin in a 15 ml Falcon tube; the resin was washed extensively with extraction/wash buffer (50 mM Na-phosphate (pH 7.0) and 300 mM NaCl) prior to use. This mixture was incubated on a rotating platform at low speed for 20 minutes at room temperature. The resin was centrifuged at 1000 rpm in a bench top centrifuge for 2 min, washed twice (10 min each) with 10 ml of extraction/wash buffer, resuspended in 10 ml of extraction/wash buffer, and transferred to a 10 ml polypropylene disposable protein purification column. The column was eluted with 5 ml of 50 mM Na-phosphate (pH 7.0) containing 300 mM NaCl and 150 mM imidazole, collected in 1 ml fractions. The eluate was analysed by SDS-PAGE and was visualised using a protein stain (FIG. 7 inset).
Recombinant Vibrio harveyi acyl carrier protein was prepared from a GST fusion protein as described previously (Flaman et al., 2001). […]

T1 sequence (P0A722 whole entry): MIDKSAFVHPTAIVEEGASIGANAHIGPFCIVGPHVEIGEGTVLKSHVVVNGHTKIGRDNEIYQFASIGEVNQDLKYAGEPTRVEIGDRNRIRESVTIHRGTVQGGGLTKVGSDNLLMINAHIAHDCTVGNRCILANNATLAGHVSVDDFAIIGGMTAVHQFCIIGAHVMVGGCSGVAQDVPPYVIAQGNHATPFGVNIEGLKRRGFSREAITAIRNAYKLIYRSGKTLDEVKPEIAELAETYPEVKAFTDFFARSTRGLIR

`Cn1nnnc1-c1cc(C(=O)O)sc1-c1cccc2ccccc12` [DNM-122H, 5-(Naphthalen-1-yl)-4-(1-methyl-1H-tetrazol-5-yl)thiophene-2-carboxylic acid] and `Cn1nnc(-c2cc(C(=O)O)sc2-c2cccc3ccccc23)n1` [DNM-123H, 5-(Naphthalen-1-yl)-4-(2-methyl-2H-tetrazol-5-yl)thiophene-2-carboxylic acid] cannot be ordered by inhibition at 5000 µM: greater than 80% for the first, greater than 80% for the second.

`NC(=O)c1ccc(-c2cc(-c3nnn[nH]3)c(-c3ccc(C(N)=O)cc3)s2)cc1` [DNM-131F, 5-(2,5-Bis(4-carbamoylphenyl)thiophen-3-yl)-1H-tetrazole] and `O=C(O)c1ccc(-c2cc(-c3nnn[nH]3)c(-c3ccc(C(=O)O)cc3)s2)cc1` [DNM-131E, 5-(2,5-Bis(4-carboxyphenyl)thiophen-3-yl)-1H-tetrazole] cannot be ordered by inhibition at 5000 µM: greater than 80% for the first, greater than 80% for the second.

`Cn1nnc(-c2cc(C(=O)O)sc2-c2ccc(-c3ccccc3)cc2)n1` [DNM-123G, 5-(4-biphenylyl)-4-(2-methyl-2H-tetrazol-5-yl)thiophene-2-carboxylic acid] and `Cn1nnnc1-c1cc(C(=O)O)sc1-c1ccc(-c2ccccc2)cc1` [DNM-122G, 5-(4-biphenylyl)-4-(1-methyl-1H-tetrazol-5-yl)thiophene-2-carboxylic acid] cannot be ordered by inhibition at 5000 µM: greater than 80% for the first, greater than 80% for the second.

`COc1ccccc1-c1sc(C(=O)O)cc1-c1nnn(C)n1` [DNM-123F, 5-(2-Methoxyphenyl)-4-(2-Methyl-2H-tetrazol-5-yl)thiophene-2-carboxylic acid] and `COc1cccc(-c2sc(C(=O)O)cc2-c2nnn(C)n2)c1` [DNM-123D, 5-(3-Methoxyphenyl)-4-(2-methyl-2H-tetrazol-5-yl)thiophene-2-carboxylic acid] cannot be ordered by inhibition at 5000 µM: greater than 80% for the first, greater than 80% for the second.

`Cn1nnnc1-c1cc(-c2ccc(C(=O)O)cc2)sc1-c1ccc(C(=O)O)cc1` [DNM-133E, 5-(2,5-Bis(4-carboxyphenyl)thiophen-3-yl)-1-methyl-1H-tetrazole] and `Cn1nnnc1-c1cc(-c2ccc(O)cc2)sc1-c1ccc(O)cc1` [DNM-133C, 5-(2,5-Bis(4-hydroxyphenyl)thiophen-3-yl)-1-methyl-1H-tetrazole] cannot be ordered by inhibition at 5000 µM: greater than 70% for the first, greater than 80% for the second.

`COc1ccc(-c2sc(C(=O)O)cc2-c2nnn(C)n2)cc1` [DNM-123E, 5-(4-Methoxyphenyl)-4-(2-methyl-2H-tetrazol-5-yl)thiophene-2-carboxylic acid] and `Cn1nnc(-c2cc(C(=O)O)sc2-c2cccc(F)c2)n1` [DNM-123A, 5-(3-Fluorophenyl)-4-(2-methyl-2H-tetrazol-5-yl)thiophene-2-carboxylic acid] cannot be ordered by inhibition at 5000 µM: greater than 70% for the first, greater than 70% for the second.

`CCOC(=O)c1ccc(-c2cc(-c3nnn[nH]3)c(-c3ccc(C(=O)OCC)cc3)s2)cc1` [DNM-131J, 5-(2,5-Bis(4-(ethoxylcarbonyl)phenyl)thiophen-3-yl)-1H-tetrazole] and `Oc1ccc(-c2cc(-c3nnn[nH]3)c(-c3ccc(O)cc3)s2)cc1` [DNM-131C, 5-(2,5-Bis(4-hydroxyphenyl)thiophen-3-yl)-1H-tetrazole] cannot be ordered by inhibition at 5000 µM: greater than 80% for the first, greater than 80% for the second.

`CCOC(=O)c1cc(-c2nnn[nH]2)c(-c2cccc(F)c2)s1` [DNM-124A, Ethyl 5-(3-fluorophenyl)-4-(1H-tetrazol-5-yl)thiophene-2-carboxylate] and `CCOC(=O)c1cc(-c2nnn[nH]2)c(-c2ccccn2)s1` [DNM-124I, Ethyl 5-(pyridin-2-yl)-4-(1H-tetrazol-5-yl)thiophene-2-carboxylate] cannot be ordered by inhibition at 5000 µM: greater than 80% for the first, greater than 80% for the second.

`COc1cccc(-c2sc(C(=O)O)cc2-c2nnnn2C)c1` [DNM-122D, 5-(3-Methoxyphenyl)-4-(1-methyl-1H-tetrazol-5-yl)thiophene-2-carboxylic acid] and `Cn1nnnc1-c1cc(-c2cccc(O)c2)sc1-c1cccc(O)c1` [DNM-133A, 5-(2,5-Bis(3-hydroxyphenyl)thiophen-3-yl)-1-methyl-1H-tetrazole] cannot be ordered by inhibition at 5000 µM: greater than 70% for the first, greater than 80% for the second.

`O=C(O)c1cc(-c2nnn[nH]2)c(-c2cccc3ccccc23)s1` [DNM-121H, 5-(Naphthalen-1-yl)-4-(1H-tetrazol-5-yl)thiophene-2-carboxylic acid] and `COC(=O)c1ccccc1-c1cc(-c2nnn[nH]2)c(-c2ccccc2C(=O)OC)s1` [DNM-131K, 5-(2,5-Bis(2-(methoxylcarbonyl)phenyl)thiophen-3-yl)-1H-tetrazole] cannot be ordered by inhibition at 5000 µM: greater than 70% for the first, greater than 70% for the second.

`Cn1nnc(-c2cc(-c3cccc(O)c3)sc2-c2cccc(O)c2)n1` [DNM-132A, 5-(2,5-Bis(3-hydroxyphenyl)thiophen-3-yl)-2-methyl-2H-tetrazole] and `Oc1cccc(-c2cc(-c3nnn[nH]3)c(-c3cccc(O)c3)s2)c1` [DNM-131A, 5-(2,5-Bis(3-hydroxyphenyl)thiophen-3-yl)-1H-tetrazole] cannot be ordered by inhibition at 5000 µM: greater than 80% for the first, greater than 80% for the second.

`NC(=O)c1cccc(-c2cc(-c3nnn[nH]3)c(-c3cccc(C(N)=O)c3)s2)c1` [DNM-131H, 5-(2,5-Bis(3-carbamoylphenyl)thiophen-3-yl)-1H-tetrazole] and `Cn1nnc(-c2cc(-c3cccc(C(=O)O)c3)sc2-c2cccc(C(=O)O)c2)n1` [DNM-132G, 5-(2,5-Bis(3-carboxyphenyl)thiophen-3-yl)-2-methyl-2H-tetrazole] cannot be ordered by inhibition at 5000 µM: greater than 70% for the first, greater than 80% for the second.

`Cn1nnc(-c2cc(-c3ccc(O)cc3)sc2-c2ccc(O)cc2)n1` [DNM-132C, 5-(2,5-Bis(4-hydroxyphenyl)thiophen-3-yl)-2-methyl-2H-tetrazole] and `Cn1nnc(-c2cc(C(=O)O)sc2-c2ccccn2)n1` [DNM-123I, 5-(Pyridin-2-yl)-4-(2-methyl-2H-tetrazol-5-yl)thiophene-2-carboxylic acid] cannot be ordered by inhibition at 5000 µM: greater than 80% for the first, greater than 70% for the second.

With `c1ccc(Cc2cc(-c3nnn[nH]3)c(Cc3ccccc3)s2)cc1` [DNM-131O, 5-(2,5-Dibenzylthiophen-3-yl)-1H-tetrazole] the inhibition at 5000 µM was greater than 80%.
